Assay results taken from article PMC5513444, “The synthesis and evaluation of triazolopyrimidines as anti-tubercular agents” (Bioorganic & Medicinal Chemistry, 2017).
Converted amounts (≈) assume the structure as drawn. “And” between values parts separate entries of the source, which are not always exact repeats. Identical values can stand only once.

Key:
M. tuberculosis H37Rv [1] = assay: MIC90 against M. tuberculosis in liquid medium; format: cell-based, Mycobacterium tuberculosis; details: Mycobacterium tuberculosis, H37RV, 120 h; liquid medium 7H9-Tw-OADC, aerobic, 5 days; average ± SD of two independent experiments; read-out: MIC (MIC90, minimum concentration required to inhibit growth of M. tuberculosis by 90%)
HepG2 cells = assay: Cytotoxicity against HepG2 cell line (CellTiter-Glo); format: cell-based; details: for Selectivity index (SI) = IC50/MIC90: HepG2 IC50 / M. tuberculosis MIC90; for IC50: Homo sapiens, 48 h, HepG2, 2 days incubation, read-out: IC50 (concentration required to reduce the viability of HepG2 cells by 50%)
[2] = Turnover by mouse liver microsomes; format: in vitro ADME
Method: (§1) Based on in silico ADME predictions, three compounds were chosen to cover a range of cLogP values and were evaluated for their in vitro microsomal stability (Table 7). Rapid metabolism of compound 44 was observed, in rodent and human liver microsomes. The para-OCF3 analog 48 was also rapidly metabolized. The amide (49) had improved in vitro microsomal stability, with only 12% loss after 30 min in mouse microsomes, 22% loss in rat microsomes and 31% loss in human microsomes. The difference in stability for these three compounds is probably due to presence of more than one oxidatively-labile carbon in 44 and 48 (both have a two carbon linker), while 49 has only one such soft spot, although these have not been confirmed with metabolite identification studies.

[3] = Turnover by rat liver microsomes; format: in vitro ADME
Method: as §1

[4] = Turnover by human liver microsomes; format: in vitro ADME
Method: as §1

[5] = Fraction unbound in mouse plasma; format: in vitro ADME; details: read-out: Mouse Fu,pl (fraction unbound in plasma)
Excerpt: Table 7 In vitro ADME and in vivo PK. | column: Mouse Fu,pl ^a

[6] = In vivo mouse PK after oral and intravenous administration; details: male mice, oral 10 mg/kg
Method: The oral exposure of the three compounds was evaluated in male mice by comparing exposures following oral (PO) and intravenous (IV) administration of 10 and 1 mg/kg doses of compounds, respectively (Table 7).

M. tuberculosis H37Rv [7] = assay: MIC99 on solid medium, M. tuberculosis; format: cell-based, Mycobacterium tuberculosis; details: solid medium 7H10-OADC, 4 weeks, lowest concentration yielding less than 1% growth
[8] = test system: Mycobacterium smegmatis mc^2155; assay: MIC99 on solid medium, M. smegmatis; format: cell-based; details: Mycolicibacterium smegmatis, 3–4 days
Escherichia coli DH5α = assay: MIC99 on solid medium, E. coli; format: cell-based; details: 24 h, LB agar, 1 day
[9] = test system: Pseudomonas aeruginosa HER1018 (PAO1); assay: MIC99 on solid medium, P. aeruginosa; format: cell-based; details: PAO1, 24 h, tryptic soy agar, 1 day
[10] = test system: Bacillus subtilis Marburg; assay: MIC99 on solid medium, B. subtilis; format: cell-based; details: nutrient agar, 28 °C, 3–4 days
M. tuberculosis = assay: Kill kinetics against M. tuberculosis in liquid culture; format: cell-based, Mycobacterium tuberculosis; details: for Kill of non-replicating M. tuberculosis: non-replicating bacteria (starvation conditions, PBS-Ty), over 14–21 days; for Activity against replicating M. tuberculosis (kill kinetics): replicating bacteria in 7H9-Tw-OADC, over 21 days
[11] = test system: Saccharomyces cerevisiae Y187; assay: MIC99 on solid medium, S. cerevisiae; details: YPD agar, 3–4 days
[12] = Mycobacterium tuberculosis, H37RV, 672 h

Row | SMILES | MIC90 (M. tuberculosis H37Rv [1]) [µM] | Selectivity index (SI) = IC50/MIC90 (HepG2 cells) | IC50 (HepG2 cells) [µM] | % turnover by liver microsomes in 30 min, Mouse [2] | % turnover by liver microsomes in 30 min, Rat [3] | % turnover by liver microsomes in 30 min, Human [4] | fraction unbound [5] | Cmax [6] [nM] | PO Tmax [6] [h] | PO t1/2 [6] [h] | PO AUC [6] [µM·h] | MIC99 (M. tuberculosis H37Rv [7]; [12]) [µM] | MIC99 (M. tuberculosis H37Rv [7]) [µM] | MIC99 [8] [µM] | MIC99 (Escherichia coli DH5α) [µM] | MIC99 [9] [µM] | MIC99 [10] [µM] | Kill of non-replicating M. tuberculosis (M. tuberculosis) | Activity against replicating M. tuberculosis (kill kinetics) (M. tuberculosis) | MIC99 S. cerevisiae [11] [µM] | further results
1 | Cc1ccc(CCNc2cc(-c3ccccc3)nc3ncnn23)cc1 [Compound 44, N-(4-Methylphenethyl)-5-phenyl-[1,2,4]triazolo[1,5-a]pyrimidin-7-amine] | 1.4 ± 0.5 (≈ 0.461 µg/mL) | 43 | 53 | 98.2% | 99.2% | 68.1% | 0.015 | 604 | 0.25 | 1.05 | – | – | – | – | – | – | – | – | – | – | –
2 | FC(F)(F)Oc1ccc(CCNc2cc(-c3ccccc3)nc3ncnn23)cc1 [Compound 48, 5-Phenyl-N-(4-(trifluoromethoxy)phenethyl)-[1,2,4]triazolo[1,5-a]pyrimidin-7-amine] | 3.9 ± 1.1 (≈ 1.56 µg/mL) | >27 | > 100 | 52.1% | 52.7% | 32.8% | 0.007 | 958 | 0.75 | 2.49 | 2.75 | 1.6 (≈ 0.639 µg/mL) | < 20 | > 10 | > 10 | > 100 | > 10 | 2–3 log | static activity | >10 | –
3 | COc1ccc(CCNc2cc(-c3ccccn3)nc3ncnn23)cc1 [Compound 16, N-(4-Methoxyphenethyl)-5-(pyridin-2-yl)-[1,2,4]triazolo[1,5-a]pyrimidin-7-amine] | 0.83 ± 0.26 (≈ 0.288 µg/mL) | >130 | > 100 | – | – | – | – | – | – | – | – | 13 (≈ 4.5 µg/mL) | < 20 | > 100 | > 100 | > 100 | > 100 | 2–3 log | static activity | >100 | melting point: 172 to 173 °C
4 | COc1ccc(CC(=O)Nc2cc(-c3ccccc3)nc3ncnn23)cc1 [Compound 49, 2-(4-Methoxyphenyl)-N-(5-phenyl-[1,2,4]triazolo[1,5-a]pyrimidin-7-yl)acetamide] | 1.5 ± 0.7 (≈ 0.539 µg/mL) | >73 | > 100 | 12% and 12.5% | 22% and 21.8% | 31% and 30.6% | – | 62.8 | 1.5 | – | 0.187 | 3.1 (≈ 1.11 µg/mL) | < 20 | > 10 | > 10 | > 10 | > 10 | 2–3 log | static activity | >10 | –
